Assay [1] has as its system human glioblastoma cell line U87. Put plainly: MTT antiproliferative assay in U87 cells. The assay is classed as cell-based. Conditions: for inhibition at 10 µM: read-out: U87 (% Inhib. @ 10 µM); for IC50: mean ± SD (n = 3); for fold decrease in anti-glioma activity: relative to 14a–14c. How it is done:
(§1) U87, Hela, MCF-7, and HHL-5 cells were provided by Chinese Academy of Medical Sciences (Beijing, China). The cancer cells were cultured in DMEM media containing 10% heat-inactivated fetal calf serum. All cells were incubated at 37 °C in a 5% CO2 humidified atmosphere and harvested in the exponential growth phase for assays.
(§2) Cells were seeded in a 96-well plate and treated with the test substance at the desired concentration for 72 h. In cytotoxicity experiments, cells were treated with 10 µM of the test compound or 1 µM XI-011 and doxorubicin as positive controls. DMSO (1%) was used as a negative control. In the IC50 analysis, doxorubicin, XI-011, 13d, 13e, 14a, 14b, and, 14n were applied to HHL-5 at 50, 25, 10, 5, 2.5, 1.25, 0.625, 0.3125, and 0.15625 µM and U87 cells at 10, 7.5, 5, […], 1.25, 0.625, 0.3125, and 0.15625 µM, whereas 30, 10, 3, 0.5, and 0.1 µM were applied to Hela and MCF-7 cells. Treated cells were incubated with an MTT solution for 2 h and then with DMSO to dissolve the crystals. Absorbance was determined at 570 nm using a microplate reader (BioTek, Seattle, DC, USA). IC50 values were calculated using the Hill model in GraphPad Prism 8.0.2 software.
On the technique in general: Formazan colour is commonly taken as a measure of viable cells.

The test system of assay [2] is human cervical cancer cell line HeLa. Put plainly: MTT antiproliferative assay in HeLa cells. In kind it is cell-based. Conditions: for IC50: Homo sapiens, 72 h, MTT, mean ± SD (n = 3). As for the experimental part:
as §1, §2

Assay [3] has as its system HHL-5 human normal cell line. Put plainly: MTT cytotoxicity assay in normal HHL-5 cells. In kind it is cell-based. Conditions: Homo sapiens, HHL-5; normal cell line, 72 h, MTT, mean ± SD (n = 3). How it is done: as §1, §2
The subject of assay [4] is human breast cancer cell line MCF-7. The assay can be described thus: MTT antiproliferative assay in MCF-7 cells. In kind it is cell-based. Conditions: MCF7, 72 h, mean ± SD (n = 3). How it is done:
as §1, §2

A further assay concerns U87 cells. Put plainly: Flow cytometric apoptosis analysis in U87 cells. In kind it is cell-based, human. Conditions: U87, 1 µM, 24 h. As for the experimental part:
Reducing MDM4 expression restores the p53 function and increases apoptotic cells. The apoptotic effects of compound 13e were determined in U87 cells by flow cytometry. […] 13e induced 21% apoptosis at 1 µM, which was slightly lower than the 23% apoptosis induced by XI-011. At 2 µM 13e, apoptosis was up to 25.9%. […] The mechanism by which 13e induces apoptosis in U87 cells may be related to its ability to downregulate MDM4 expression and stabilize p53 protein.

Where [5] appears, read: Homo sapiens, U-87 MG, 72 h, 10 µM, 72 h, MTT, triplicates.
Setting [6] is: Homo sapiens, U-87 MG, 72 h, MTT.

For orientation: IC50 means the midpoint of a concentration-inhibition curve. The low end stands for greater potency in that assay, the high end for weaker potency in that assay.

For `CC(=O)NC(=N)SCc1ccc(C)c2ccccc12` [12i], the inhibition at 10 µM in assay [1] (setting [5]) is 2.7%.

In the case of `CNC(=N)SCc1c2ccccc2c(C)c2ccccc12` [13d], the 50% inhibitory concentration (IC50) in assay [2] is 5660 ± 290 nM; in assay [3], 850 ± 100 nM; in assay [1] (72 h, MTT), 1620 ± 20 nM; in assay [1] (setting [6]), below 2000 nM; in assay [4], 4740 ± 200 nM. Also, the inhibition at 10 µM in assay [1] (setting [5]) was determined as 93.3%.

In the case of `CNC(=N)SCc1c2ccccc2c(Br)c2ccccc12` [14n], the IC50 in assay [2] was 7740 ± 810 nM; in assay [3], 1670 ± 160 nM; in assay [1] (72 h, MTT), 1840 ± 120 nM; in assay [1] (setting [6]), below 2000 nM; in assay [4] it was 7600 ± 1370 nM. In addition, the “fold reduction in anti-cervical cancer activity” value in assay [2] (bromo versus methyl and ethyl analogs (14a, 14b, XI-011)) is reported as 1–2 fold. In assay [1] (setting [5]), the inhibition at 10 µM amounted to 86.5%.

Turning to `CCCCCCNC(=N)SCc1c2ccccc2c(CC)c2ccccc12` [14f], in assay [1] (setting [5]), the inhibition at 10 µM is 43.6%. In addition, in assay [1] (U87 inhibition rate at 10 µM), the “fold decrease in anti-glioma activity” value is 3~4 fold.

On to `N=C(N)SCc1c2ccccc2c(Br)c2ccccc12` [14m], for which the inhibition at 10 µM in assay [1] (setting [5]) turned out to be 36.8%.

As for `CCc1c2ccccc2c(CSC(=N)NC(C)=O)c2ccccc12` [14e], in assay [1] (setting [5]), the inhibition at 10 µM was found to be 19.3%. For the same compound, the “fold decrease in anti-glioma activity” value in assay [1] (U87 inhibition rate at 10 µM) is 3~4 fold.

On to `Cc1c2ccccc2c(CSC(=N)NN)c2ccccc12` [13a], for which, in assay [1] (setting [5]), the inhibition at 10 µM is 57.9%. In addition, in assay [1] (U87 inhibition rate at 10 µM), the “fold more potency than 12f” value is listed as “approximately 4 fold”.

Take `CCc1c2ccccc2c(CSC(=N)N(C)N)c2ccccc12` [14c]: in assay [1] (setting [5]), the inhibition at 10 µM is 83.6%.

With `N=C(N)SCc1ccc([N+](=O)[O-])cc1` [12d], the inhibition at 10 µM in assay [1] (setting [5]) came to 14.8%.

As for `Cc1ccc(CSC(=N)N)c2ccccc12` [12a], the inhibition at 10 µM in assay [1] (setting [5]) was 15.2%.

With `Cc1c2ccccc2c(CSC2=NC(=O)CC(=O)N2)c2ccccc12` [13h], the inhibition at 10 µM in assay [1] (setting [5]) worked out at 0.7%.

For the compound `CCCCCCNC(=N)SCc1c2ccccc2nc2ccccc12` [14r], in assay [1] (setting [5]), the inhibition at 10 µM came out at 2.1%.

On to `Cc1ccc(CSC(=N)N)cc1` [12c], for which the inhibition at 10 µM in assay [1] (setting [5]) was found to be 11.8%.

For `CCCc1c2ccccc2c(CSC(=N)N)c2ccccc12` [14h], the inhibition at 10 µM in assay [1] (setting [5]) is 64.6%.

As for `CCc1c2ccccc2c(CSC(=N)Nc2ccc(C(F)(F)F)cc2)c2ccccc12` [14g], the inhibition at 10 µM in assay [1] (setting [5]) stood at 28%. In addition, the “fold decrease in anti-glioma activity” value in assay [1] (U87 inhibition rate at 10 µM) is 3~4 fold.

On to `CNC(=N)SCc1ccc2ccccc2n1` [12l], for which, in assay [1] (setting [5]), the inhibition at 10 µM was 11.3%.

Turning to `N=C(NN)SCc1c2ccccc2cc2ccccc12` [14j], the inhibition at 10 µM in assay [1] (setting [5]) came to 11.8%.

Take `N=C(NN)SCc1cccc2ccccc12` [12g]: the inhibition at 10 µM in assay [1] (setting [5]) came to 14.5%.

For `N=C(N)SCc1cccc2ccccc12` [12b], in assay [1] (setting [5]), the inhibition at 10 µM was determined as 9%.

In the case of `COc1cccc2c1C(=O)c1c(O)c3c(c(O)c1C2=O)C[C@@](O)(C(=O)CO)C[C@@H]3O[C@H]1C[C@H](N)[C@H](O)[C@H](C)O1` [DOX, doxorubicin, reference compound], the IC50 in assay [2] came out at 540 ± 50 nM; in assay [3], 320 ± 20 nM; in assay [1] (setting [6]) it was 440 ± 60 nM; in assay [4] it was 1320 ± 160 nM. The inhibition at 10 µM in assay [1] (setting [5]) came out at 81.1%.

Take `Cc1c2ccccc2c(CSC(=N)NC(=N)N)c2ccccc12` [13c]: the inhibition at 10 µM in assay [1] (setting [5]) was found to be 35.4%.

Take `Cc1c2ccccc2c(CSC(=N)Nc2ccccc2)c2ccccc12` [13j]: in assay [1] (setting [5]), the inhibition at 10 µM turned out to be 13.3%.

In the case of `CC(C)=NNC(=N)SCc1c2ccccc2c(C)c2ccccc12` [13f], the inhibition at 10 µM in assay [1] (setting [5]) was 65.1%. The “fold potency improvement in U87 cells compared with aryl-derived compounds” value in assay [1] (U87 inhibition rate at 10 µM) was 3–4 fold.

`CCc1c2ccccc2c(CSC(=N)NC(=N)N)c2ccccc12` [14d]: the inhibition at 10 µM in assay [1] (setting [5]) is 17.3%. Moreover, in assay [1] (U87 inhibition rate at 10 µM), the “fold decrease in anti-glioma activity” value is recorded as 3~4 fold.

For the compound `Cc1c2ccccc2c(CS/C(=N\c2ccccc2)Nc2ccccc2)c2ccccc12` [13k], the inhibition at 10 µM in assay [1] (setting [5]) was 28.1%.

As to `Cc1c2ccccc2c(CSc2ncc[nH]2)c2ccccc12` [13g], in assay [1] (setting [5]), the inhibition at 10 µM worked out at 41.2%.

For `CC(C)=NNC(=N)SCc1c2ccccc2cc2ccccc12` [14k], the inhibition at 10 µM in assay [1] (setting [5]) was determined as 14.2%.

As to `Cc1c2ccccc2c(CSC(=N)N)c2ccccc12` [XI-011, (10-methylanthracen-9-yl)methyl carbamimidothioate, reference compound], the concentration for half-maximal inhibition (IC50) in assay [2] is 1510 ± 60 nM; in assay [3] it was 550 ± 30 nM; in assay [1] (setting [6]), 690 ± 20 nM; in assay [4], 4870 ± 300 nM. In assay [1] (setting [5]), the inhibition at 10 µM came to 91.8%. The compound also came in with an apoptosis in the assay with U87 cells of 23%.

For `N=C(N)SCc1c2ccccc2nc2ccccc12` [14q], the inhibition at 10 µM in assay [1] (setting [5]) is 12.5%.

With `CCOC(=O)c1cnc(SCc2c3ccccc3c(C)c3ccccc23)[nH]1` [13i], the inhibition at 10 µM in assay [1] (setting [5]) came to 31.2%.

Turning to `CNC(=N)SCc1ccc(C)c2ccccc12` [12h], in assay [1] (setting [5]), the inhibition at 10 µM was determined as 9.9%.

Regarding `CNC(=N)SCc1c2ccccc2cc2ccccc12` [14i], the “U87 (% Inhib. @ 10 µM)” value in assay [1] (10 µM, 72 h, MTT, triplicates) was 76.4%. The inhibition at 10 µM in assay [1] (setting [5]) came to 83%.

On to `N=C(NN)SCc1c2ccccc2c(Br)c2ccccc12` [14o], for which the inhibition at 10 µM in assay [1] (setting [5]) turned out to be 50.7%.

`N=C(N)SC1c2ccccc2CCc2ccccc21` [14s]: the inhibition at 10 µM in assay [1] (setting [5]) worked out at 6.9%. In assay [1] (U87 inhibition rate at 10 µM), the “fold less potency than XI-011” value is “approximately 12 fold”.

Turning to `CC(=O)NC(=N)SCc1ccc(C)cc1` [12j], the inhibition at 10 µM in assay [1] (setting [5]) came out at 6.8%.

`N=C(NN)SCc1c2ccccc2nc2ccccc12` [14p]: the inhibition at 10 µM in assay [1] (setting [5]) stood at 19%.

Consider `Cc1ccc(CSC(=N)NN)c2ccccc12` [12f], for which the inhibition at 10 µM in assay [1] (setting [5]) stood at 13.1%.

`N=C(NN)SCc1ccc2ccccc2n1` [12k]: the inhibition at 10 µM in assay [1] (setting [5]) stood at 10.7%.

For the compound `CCCCCCNC(=N)SCc1c2ccccc2c(C)c2ccccc12` [13l], the inhibition at 10 µM in assay [1] (setting [5]) stood at 86.7%. Also, the “fold potency improvement in U87 cells compared with aryl-derived compounds” value in assay [1] (U87 inhibition rate at 10 µM) was 3–4 fold.

Take `CC(=O)NC(=N)SCc1c2ccccc2cc2ccccc12` [14l]: the inhibition at 10 µM in assay [1] (setting [5]) stood at 0.7%.

Take `CC(=O)NC(=N)SCc1c2ccccc2c(C)c2ccccc12` [13b]: the inhibition at 10 µM in assay [1] (setting [5]) amounted to 19.3%.

`CCc1c2ccccc2c(CSC(=N)N)c2ccccc12` [14a]: the concentration for half-maximal inhibition (IC50) in assay [2] was 3640 ± 270 nM; in assay [3] it was 1510 ± 160 nM; in assay [1] (72 h, MTT), 1240 ± 240 nM; in assay [1] (setting [6]) it was below 2000 nM; in assay [4], 4560 ± 30 nM. Moreover, the inhibition at 10 µM in assay [1] (setting [5]) came out at 79%.

On to `CCc1c2ccccc2c(CSC(=N)NC)c2ccccc12` [14b], for which the IC50 in assay [2] is 2660 ± 190 nM; in assay [3], 1620 ± 130 nM; in assay [1] (72 h, MTT) it was 1350 ± 100 nM; in assay [1] (setting [6]), below 2000 nM; in assay [4] it was 4550 ± 270 nM. Further, the inhibition at 10 µM in assay [1] (setting [5]) was 94.7%.

With `N=C(N)SCc1ccc2ccccc2c1` [12e], the inhibition at 10 µM in assay [1] (setting [5]) came to 1.5%.
